Data set [1] deals with algae cells. The data set is described as follows: Loading of algae with astaxanthin, microscopic examination. More on the design: species or system Cyclotella meneghiniana. The conditions noted are these: over 24 hours. On the procedure: A rehydration composition was prepared by adding 1 g of synthetic astaxanthin to 200 ml of fresh, potable water, then microwaving 3 times for 1 min each time.
The algae were then rehydrated by blending the astaxanthin solution (suspension) together with 1 litre of potable water and 200 mg of the algae powder for 2 minutes.
Astaxanthin particles were able to penetrate inside algae cells and were also absorbed by the porous surface of the siliceous exoskeleton (frustule).

For data set [2], the system named is algae cells. The data set is described as follows: Loading of freeze-dried algae with vitamin C by rehydration; vitamin C in algal cells by HPLC-DAD. More on the design: species or system Cyclotella meneghiniana. The conditions noted are these: rehydration in 5 g/L vitamin C; incubation at 28° C. The protocol:
A rehydration composition was prepared by dissolving 500 mg per litre vitamin C in filtered natural (North Sea) seawater (20° C.). A second rehydration composition was prepared by dissolving 5 g per litre vitamin C in the seawater. As a control, a third rehydration composition consisted of just the clean seawater without any vitamin C added.
The algae were then rehydrated by adding one of the rehydration compositions to a standard kitchen blender (Kenwood KM230, 650 W, with blender attachment). The blender was switched on at a moderate mixing speed (speed 4) to agitate the rehydration composition. Then 10 g per litre of freeze-dried algae was added to the rehydration composition while mixing, and the freeze-dried algae was allowed to blend into the rehydration composition for 2 minutes. Cell integrity after rehydration was verified using a microscope.
Each of the three rehydration compositions comprising rehydrated algae were split into six replicates. Three replicates of each composition were harvested immediately after rehydration. The remaining three replicates of the treatment groups were incubated in a water bath at 28° C. and provided with moderate aeration. […]
The concentration of vitamin C in the algal cells of the treatment groups and control at the different time points were then analysed by high-performance liquid chromatography with Diode-Array Detection.

Each structure is given as a SMILES string. Bounds are passed on as bounds.

Consider `CC1=C(/C=C/C(C)=C/C=C/C(C)=C/C=C/C=C(C)/C=C/C=C(C)/C=C/C2=C(C)C(=O)[C@@H](O)CC2(C)C)C(C)(C)C[C@H](O)C1=O` [astaxanthin], for which the “stability of association of astaxanthin particles within algae cells” value with algae cells [1] is “remained stable”.

For `O=C1O[C@H]([C@@H](O)CO)C(O)=C1O` [vitamin C], the “time for which the vitamin C level in the algae cells was maintained” value in the data set on algae cells [2] was at least 6 h.
